Several values for one entry are separate records, joined by “and”; a condition that tells them apart may be missing. Equal values may be shown once.
Assays:
[1] = system: NQO1 activation in BEAS-2B cells; assay: BEAS-2B cellular MTT assay of NQO1 activation, 0% HSA; assay type: cell-based
Method: (§1) The growth rate of the BEAS-2B cells changed based on the lot of BEGM SingleQuots in the BEGM media. The cell growth rate was determined for each lot of SingleQuots. Ideally, cells were thawed into media with the new lot of SingleQuots and grown for two passages before testing; however, growing an active culture in the new lot of media for two to three passages before testing was also acceptable. Until the cell growth rate was determined, cells were seeded at different densities (cells/cm^2) in multiple tissue culture flasks in order to avoid the cells becoming more than 70% confluent. Cells should not go above 70% confluent as the cells differentiate when they become confluent. After the cells were grown in the new lot of media as described above, the number of cells per well needed to seed in the collagen plates was determined by seeding different numbers of cells per well and incubating for 48 hours. Cell confluency was checked after 48 hours and a cell number that results in just below to just above confluency was chosen for future plate seeding. Cell confluency in the assay plate was 95-100% confluent after 48 hours.
(§2) Cell media consists of BEBM basal media with the BEGM SingleQuots added. SingleQuots vials were thawed in the tissue culture hood, and GA-1000 (Gentamicin-Amphotericin) was not added.
(§3) If complete media was to be used immediately, BEBM basal media was warmed to room temperature in the hood, but not as high as 37° C. When the media was made for future use, SingleQuots were added to cold BEBM. One at a time, the SingleQuots components (except GA-1000) were added to the BEBM media. After removal of each component from the vial, the vial was rinsed with 0.5-1 mL of BEBM (depending on the volume the vial could hold) and added to the bottle of BEBM. Once all components were added, the label that comes with the SingleQuots kit was put on the bottle of media and the date was recorded. The bottle of media was mixed by gentle shaking. The media was not filtered. This media was stored at 4° C., with any leftover media disposed of one month after the date the SingleQuots were added.
(§4) BEAS-2B Cell Splitting Protocol:
(§5) First, Trypsin was warmed to 37° C. in the water bath. The media was then warmed to room temperature by letting it sit in the tissue culture hood, but not as high as 37° C. The media was aspirated from flask(s) and the flask(s) were washed with PBS. From 1 to 1.5 mL of warm trypsin were added to each flask and incubated at 37° C. until cells came off the flask on their own (~8-10 minutes), with no vigorous tapping on the flask to detach the cells.
(§6) Media was added to each flask to a total volume of 8-10 mL per flask and transferred to 15 mL conical tube(s). The cells were spun down at 120 g for 5 minutes, level 5 brake. The cells can be spun down between 100 and 150 g. Next the media was aspirated and the cell pellet was resuspended in fresh media by pipetting up and down and flicking the tube side to side. Any clumps of cells that remained were allowed to settle to the bottom of the tube before the top suspension was transferred into another tube, leaving about 1 mL of media in the original tube. The 1 mL of media and cell clumps were mixed with a single channel p1000 pipette, and any remaining clumps were removed before adding the cells in suspension to the other tube. The suspension was mixed with a pipette, an aliquot was removed, and the cells were counted. The amount of cells/cm^2 desired was calculated and the required volume of cells was added to tissue culture flasks. For example, use of SingleQuots with ~6000 cells/cm^2 was appropriate for a three day incubation and ~3000 cells/cm^2 for a five day incubation. Optimal cell density differed depending on lot of SingleQuots. The flasks were incubated at 37° C. in 5% CO2.
(§7) Day One: Seeding BEAS-2B Cells in Collagen Plates:
(§8) Plate(s) were either seeded with 0.3% or 0% HSA. While the protocol was similar for both conditions any differences are noted herein below. […]

[2] = system: NQO1 activation in BEAS-2B cells; assay: BEAS-2B cellular MTT assay of NQO1 activation, 0.3% HSA; assay type: cell-based
Method: as §1, §2, §3, §4, §5, §6, §7, §8

[3] = target: HIS-Keap1 full length / Biotin-Nrf2 (16-mer) (Homo sapiens, UniProt Q14145); assay: biochemical
Sequence of HIS-Keap1 full length / Biotin-Nrf2 (16-mer) (Q14145 whole entry): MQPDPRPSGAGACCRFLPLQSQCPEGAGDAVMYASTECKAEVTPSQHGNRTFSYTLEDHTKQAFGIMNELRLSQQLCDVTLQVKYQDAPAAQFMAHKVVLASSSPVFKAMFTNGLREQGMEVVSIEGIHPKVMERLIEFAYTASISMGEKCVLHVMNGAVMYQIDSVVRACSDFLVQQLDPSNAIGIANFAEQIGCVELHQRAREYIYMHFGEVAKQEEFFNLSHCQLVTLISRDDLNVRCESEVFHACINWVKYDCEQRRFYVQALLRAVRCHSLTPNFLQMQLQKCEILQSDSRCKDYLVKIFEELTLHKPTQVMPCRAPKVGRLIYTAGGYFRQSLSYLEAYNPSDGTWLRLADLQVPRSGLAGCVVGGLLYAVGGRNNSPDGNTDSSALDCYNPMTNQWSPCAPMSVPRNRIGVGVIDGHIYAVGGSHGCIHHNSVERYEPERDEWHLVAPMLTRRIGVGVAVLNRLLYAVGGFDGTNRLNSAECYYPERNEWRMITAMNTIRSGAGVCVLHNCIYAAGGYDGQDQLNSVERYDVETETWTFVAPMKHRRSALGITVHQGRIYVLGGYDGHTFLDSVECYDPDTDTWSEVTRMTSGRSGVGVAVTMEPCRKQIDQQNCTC

[4] = Homo sapiens, Serum Free W, read-out: BEAS EC50 (nM) Serum Free W
[5] = Serum Free W, read-out: BEAS EC50 (nM) Serum Free W
[6] = BEAS+ W, read-out: BEAS+ W EC50
[7] = Homo sapiens, BEAS+ W, read-out: BEAS+ W EC50
[8] = Homo sapiens, serum free, read-out: BEAS EC50 (nM) serum free
[9] = serum free, read-out: BEAS EC50 (nM) serum free
[10] = Homo sapiens, BEAS+, read-out: BEAS+ EC50

| Compound | EC50 [1, 4] [nM] | EC50 [1, 5] | EC50 [2, 6] | EC50 [2, 7] [nM] | IC50 [3] | EC50 [1, 8] [nM] | EC50 [1, 9] [nM] | EC50 ([2]; BEAS+, read-out: BEAS+ EC50) [nM] | EC50 [2, 10] [nM] |
| --- | --- | --- | --- | --- | --- | --- | --- | --- | --- |
| Cc1c2ccc3c1nnn3CCCCCc1ccc3c(c1)cc(n3C)C(=O)N1CCc3ccc(cc3C1)[C@@H]2[C@H](C)C(=O)O (racemic) [Compound 113] | 1.6 | 1.8 nM | 48.7 nM | 62.7 | 1.1 nM and 0.9 nM |  |  |  |  |
| Cn1c2cc3cc(cnc31)CCCCCOc1ccc(cn1)C(CC(=O)O)c1ccc3c(c1)CN(CC3)C2=O (racemic) [Compound 158, 2-(33-methyl-2-oxo-15-oxa-1,7,17,33-tetrazahexacyclo[19.5.3.216,19.13,6.15,9.024,28]tritriaconta-3,5,7,9(32),16,18,21(29),22,24(28),30-decaen-20-yl)acetic Acid] |  |  |  |  | 3.6 nM and 3.2 nM | 18.2 | 22.1 | 400 | 403 |
| Cc1c2ccc3c1nnn3CCCCCCc1ccc(cc1)C(=O)N1CCc3ccc(cc3C1)[C@@H]2[C@H](C)C(=O)O (racemic) [Compound 200] |  |  |  |  | 87.3 nM and 86.3 nM | 3.4 | 6.5 | 9.3 | 9.5 |
| C[C@H](C(=O)O)[C@@H]1c2ccc(nc2)OCCCCCc2ccc(cc2)C(=O)N2CCc3ccc1cc3C2 (single isomer, unassigned) [Compound 127] |  |  |  |  | 3.8 nM and 3.9 nM | 0.3 |  | 0.6 | 0.4 |
| Cc1c2ccc3c1nnn3CCCCCCc1ccc3c(c1)cc(n3C)C(=O)N1CCc3ccc(cc3C1)[C@@H]2[C@H](C)C(=O)O [Compound 34] | 3.6 | 3.8 nM | 189 nM | 190 | 1.7 nM and 0.6 nM |  |  |  |  |
| O=C(O)C[C@H]1c2cnc(nc2)OCC/C=C/Cc2c(F)c(F)c(c(F)c2F)C(=O)N2CCc3ccc1cc3C2 [Compound 35] | > 1000 |  |  | > 10000 | 840 nM and 662 nM |  |  |  |  |
| Cc1c2cnc3c1nnn3CCCCCCc1c(F)c(F)c(c(F)c1F)C(=O)N1CCc3ccc(cc3C1)[C@@H]2[C@@H](C)C(=O)O [Compound 36] | 35 | 36.7 nM | 95.4 nM | 184 | 12.7 nM and 2.5 nM |  |  |  |  |
| Cc1c2ccc3c1nnn3CCCCCCc1ccc(cc1OC(F)F)C(=O)N1CCc3ccc(cc3C1)[C@@H]2CC(=O)O [Compound 37] | 18.1 | 18.2 nM | 72.3 nM | 100 | 1 nM and 0.8 nM |  |  |  |  |
| Cc1c2ccc3c1nnn3CCCCCc1ccc(cc1OC(F)F)C(=O)N1CCc3ccc(cc3C1)[C@@H]2CC(=O)O [Compound 38] | 4.8 | 4.5 nM | 17 nM | 15 | 0.4 nM and 0.3 nM |  |  |  |  |
| Cc1c2ccc3c1nnn3CCCCCCc1ccc3c(c1)cc(n3CC(F)F)C(=O)N1CCc3ccc(cc3C1)[C@@H]2CC(=O)O [Compound 39] | 5.9 | 4.2 nM and 4.3 nM | 531 nM and 590 nM | 492 | 1 nM and 1.1 nM |  |  |  |  |
| O=C(O)C[C@@H]1c2cnc(nc2)OCC/C=C/Cc2c(F)c(F)c(c(F)c2F)C(=O)N2CCc3ccc1cc3C2 [Compound 40] | > 1000 |  |  | 3580 | 46.2 nM and 53.6 nM |  |  |  |  |
| Cc1c2ccc3c1nnn3CCCCCCc1ccc(cc1OC(F)(F)F)C(=O)N1CCc3ccc(cc3C1)[C@@H]2CC(=O)O [Compound 42] | 8.7 |  | 54.1 nM | 35 | 0.9 nM and 1.4 nM |  |  |  |  |
| Cc1c2n(C)c3ccc(cc13)C/C=C\CCCn1nnc3c(C)c(cnc31)[C@H](CC(=O)O)c1ccc3c(c1)CN(CC3)C2=O [Compound 43] | 4.4 | 4.3 nM and 3.7 nM | 43.5 nM and 37 nM | 42.9 | 0.2 nM |  |  |  |  |
| O=C(O)C[C@@H]1c2cnc(nc2)OCCCCCc2c(F)c(F)c(c(F)c2F)C(=O)N2CCc3ccc1cc3C2 [Compound 44] | 393 |  |  | 1560 | 6.7 nM and 5.1 nM |  |  |  |  |

Reference: patent US12692274B2, “Tetrahydroisoquinoline derivatives for the treatment of red blood disorders and inflammatory diseases” (Sanofi, priority 2020, dated 2026)
